Measured values from the NIST ThermoML archive (doi:10.1016/j.jct.2016.07.008).

Assay: xn = mol fraction of the nth substance listed
Conditions: 333.15 K, Liquid, Vibrating wire viscometry

Cc1ccc(C)c(C)c1 [1,2,4-trimethylbenzene] + CCCCO
viscosity [mPa·s]
Conditions | x2 = 0.2999 | x2 = 0.5289 | x2 = 0.7991
100 kPa | 0.5848 | 0.6443 | 0.8537
1000 kPa | 0.5927 | 0.6496 | 0.8605
5000 kPa | 0.6096 | 0.6816 | 0.8976
10000 kPa | 0.6356 | 0.7029 | 0.94
20000 kPa | 0.6805 | 0.753 | 1.026
30000 kPa | 0.7326 | 0.8089 | 1.107
40000 kPa | 0.7951 | 0.8688 | 1.197
50000 kPa | 0.8476 | 0.9271 | 1.282
60000 kPa | 0.906 | 0.9904 | 1.379
70000 kPa | 0.9707 | 1.059 | 1.466
80000 kPa | 1.03 | 1.131 | 1.577
100000 kPa | 1.177 | 1.295 | 1.771
120000 kPa | 1.308 | 1.453 | 1.945
140000 kPa | 1.447 | 1.615 | 2.135
